ChEMBL document CHEMBL1132018, “Design and synthesis of thiol containing inhibitors of matrix metalloproteinases” (Bioorg Med Chem Lett, 1999)

How the values were obtained:
[1] = biological target: Matrix metalloproteinase-9 (Rattus norvegicus, UniProt P50282); experiment: In vitro inhibitory activity against matrix metalloprotease-9
Interstitial collagenase [2] = biological target: T1, Interstitial collagenase (Homo sapiens, UniProt P03956); experiment: In vitro inhibitory activity against matrix metalloprotease 1
T1 sequence (P03956 whole entry): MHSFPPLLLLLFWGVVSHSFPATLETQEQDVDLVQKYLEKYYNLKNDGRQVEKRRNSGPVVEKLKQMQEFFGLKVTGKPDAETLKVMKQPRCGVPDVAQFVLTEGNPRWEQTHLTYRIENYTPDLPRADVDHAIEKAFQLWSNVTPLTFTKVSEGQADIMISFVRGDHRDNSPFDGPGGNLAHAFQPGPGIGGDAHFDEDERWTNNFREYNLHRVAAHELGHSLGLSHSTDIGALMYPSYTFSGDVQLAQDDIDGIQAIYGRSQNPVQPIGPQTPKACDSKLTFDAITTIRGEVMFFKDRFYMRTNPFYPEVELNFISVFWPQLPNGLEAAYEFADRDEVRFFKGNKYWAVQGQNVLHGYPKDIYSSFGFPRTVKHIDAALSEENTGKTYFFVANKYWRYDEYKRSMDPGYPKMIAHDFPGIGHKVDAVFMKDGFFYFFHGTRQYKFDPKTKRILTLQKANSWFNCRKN

Rattus norvegicus [3] = experiment: Drug level in plasma was determined 2 hours after administration to 3 rats orally at 75 umol/kg; format: functional, organism-based
Rattus norvegicus [4] = experiment: Drug level in plasma was determined 4 hours after administration to 3 rats orally at 75 umol/kg; format: functional, organism-based
Rattus norvegicus [5] = experiment: Drug level in plasma was determined 2 hours after administration to 2 rats orally at 75 umol/kg; format: functional, organism-based
Rattus norvegicus [6] = experiment: Drug level in plasma was determined 4 hours after administration to 2 rats orally at 75 umol/kg; format: functional, organism-based
Interstitial collagenase [7] = biological target: T1, Interstitial collagenase; experiment: Inhibition of matrix metalloprotease 1 (MMP 1)

Matrix metalloproteinase-9, sequence (P50282 whole entry): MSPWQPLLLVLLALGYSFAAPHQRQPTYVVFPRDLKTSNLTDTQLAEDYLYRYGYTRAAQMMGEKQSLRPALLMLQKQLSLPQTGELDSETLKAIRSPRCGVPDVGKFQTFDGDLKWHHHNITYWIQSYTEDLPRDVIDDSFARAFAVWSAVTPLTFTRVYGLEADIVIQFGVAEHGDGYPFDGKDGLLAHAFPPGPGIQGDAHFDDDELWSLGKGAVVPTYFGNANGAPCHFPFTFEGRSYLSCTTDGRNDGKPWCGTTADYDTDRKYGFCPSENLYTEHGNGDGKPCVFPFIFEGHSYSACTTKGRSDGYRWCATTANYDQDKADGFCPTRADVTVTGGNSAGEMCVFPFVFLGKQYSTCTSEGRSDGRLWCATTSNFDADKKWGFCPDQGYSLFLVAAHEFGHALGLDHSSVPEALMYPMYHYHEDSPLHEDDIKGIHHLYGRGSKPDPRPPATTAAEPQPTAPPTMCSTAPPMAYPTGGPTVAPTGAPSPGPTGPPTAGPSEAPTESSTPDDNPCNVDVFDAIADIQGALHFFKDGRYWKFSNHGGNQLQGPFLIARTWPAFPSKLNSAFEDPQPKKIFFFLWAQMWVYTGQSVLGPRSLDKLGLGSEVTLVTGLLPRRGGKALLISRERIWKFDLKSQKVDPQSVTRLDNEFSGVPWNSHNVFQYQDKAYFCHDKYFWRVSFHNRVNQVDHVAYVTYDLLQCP

| SMILES | IC50 [1] [nM] | IC50 (Interstitial collagenase [2]) [nM] | further results |
| --- | --- | --- | --- |
| CCO[C@H]1CC[C@@](CS)(C(=O)N[C@@H](Cc2ccccc2)C(=O)Nc2ccc(Cl)cc2)CC1 | 79 | 5910 |  |
| CCO[C@H]1CC[C@@](CS)(C(=O)N[C@@H](Cc2ccccc2)C(=O)Nc2ccccc2)CC1 (stereo in doubt; 14) | > 10000 |  |  |
| CCC[C@H]1CC[C@@](CS)(C(=O)N[C@@H](Cc2ccccc2)C(=O)NC)CC1 | > 10000 |  |  |
| CCO[C@H]1CC[C@@](CS)(C(=O)N[C@@H](Cc2ccccc2)C(=O)Nc2ccccn2)CC1 | 121 | 3470 |  |
| CCCO[C@H]1CC[C@@](CS)(C(=O)N[C@@H](Cc2ccccc2)C(=O)NC)CC1 | 630 | 6030 |  |
| CNC(=O)[C@H](Cc1ccccc1)NC(=O)[C@]1(CS)CC[C@H](C(F)(F)F)CC1 | 108 | 669 |  |
| CCO[C@H]1CC[C@@](CS)(C(=O)N[C@@H](Cc2ccc(F)cc2)C(=O)Nc2ccccc2)CC1 | 83 | 6260 |  |
| CCO[C@H]1CC[C@@](CS)(C(=O)N[C@@H](Cc2ccccc2)C(=O)Nc2ccc(OC(F)(F)F)cc2)CC1 | 81 | > 10000 |  |
| CCO[C@H]1CC[C@@](CS)(C(=O)N[C@@H](Cc2ccccc2)C(=O)NC2CCCCC2)CC1 | 79 | 2930 |  |
| CNC(=O)[C@H](Cc1ccccc1)NC(=O)C1(CS)CCCCC1 | 350 | 5030 |  |
| CNC(=O)[C@H](Cc1ccccc1)NC(=O)[C@]1(CS)CC[C@H](C(C)(C)C)CC1 | > 10000 |  |  |
| CNC(=O)[C@H](Cc1ccccc1)NC(=O)[C@@]1(CS)CCCC(OC)C1 (stereo partly specified) | > 10000 |  |  |

Now those with a lower IC50 [1], led by results:

| IC50 [1] [nM] | IC50 (Interstitial collagenase [2]) [nM] | SMILES | further results |
| --- | --- | --- | --- |
| 66 | 1940 | CCO[C@H]1CC[C@@](CS)(C(=O)N[C@@H](Cc2ccc(Cl)cc2)C(=O)Nc2ccccc2)CC1 |  |
| 63 | 1330 | CCO[C@H]1CC[C@@](CS)(C(=O)N[C@@H](Cc2ccccc2)C(=O)Nc2ccc(N(C)C)cc2)CC1 |  |
| 52 | 2150 | CCO[C@H]1CC[C@@](CS)(C(=O)N[C@@H](Cc2ccccc2)C(=O)Nc2ccc(F)cc2)CC1 |  |
| 49 | 1220 | CCO[C@H]1CC[C@@](CS)(C(=O)N[C@@H](Cc2ccccc2)C(=O)Nc2ccccc2)CC1 (stereo in doubt; 13) |  |
| 46 | 1270 | CCO[C@H]1CC[C@@](CS)(C(=O)N[C@@H](Cc2ccccc2)C(=O)Nc2ccc(OC)cc2)CC1 |  |
| 42 | 953 | CCO[C@H]1CC[C@@](CS)(C(=O)N[C@@H](Cc2cccs2)C(=O)Nc2ccccc2)CC1 |  |
| 40 | 680 | CCO[C@H]1CC[C@@](CS)(C(=O)N[C@@H](Cc2ccccc2)C(=O)NC(C)C)CC1 |  |
| 35 | 110 | CNC(=O)[C@H](Cc1ccccc1)NC(=O)[C@]1(CS)CC[C@H](OC)CC1 |  |
| 34 | 3270 | CCOc1ccc(C[C@H](NC(=O)[C@]2(CS)CC[C@H](OCC)CC2)C(=O)Nc2ccccc2)cc1 |  |
| 26 | 823 | CCO[C@H]1CC[C@@](CS)(C(=O)N[C@@H](Cc2ccccc2)C(=O)NCc2ccccc2)CC1 | Plasma concentration (Rattus norvegicus [3]): 837 nM; Plasma concentration (Rattus norvegicus [4]): 491 nM |
| 24 | 561 | CCO[C@H]1CC[C@@](CS)(C(=O)N[C@@H](Cc2ccccc2)C(=O)NC2CCCC2)CC1 |  |
| 21 | 564 | CCO[C@H]1CC[C@@](CS)(C(=O)N[C@@H](Cc2cccnc2)C(=O)Nc2ccccc2)CC1 |  |
| 20 |  | CCO[C@H]1CC[C@@](CS)(C(=O)N[C@@H](Cc2ccc(OC)cc2)C(=O)Nc2ccccc2)CC1 | IC50 (Interstitial collagenase [7]): 1060 nM |
| 18 | 700 | CCO[C@H]1CC[C@@](CS)(C(=O)N[C@@H](Cc2ccccc2)C(=O)NC)CC1 |  |
| 17 | 135 | CCO[C@H]1CC[C@@](CS)(C(=O)N[C@@H](Cc2ccccc2)C(=O)Nc2cccnc2)CC1 | Plasma concentration (Rattus norvegicus [5]): 253 nM; Plasma concentration (Rattus norvegicus [6]): 289 nM |
| 14 | 739 | CCO[C@H]1CC[C@@](CS)(C(=O)N[C@@H](Cc2ccc(O)cc2)C(=O)Nc2ccccc2)CC1 |  |
